Key:
InhA [1] = target: T1, InhA (Mycobacterium tuberculosis, UniProt P9WGR1); conditions: 100 μM ETH, in the presence of MnCl2 and NADH
protein MabA [2] = target: T2, protein MabA (Mycobacterium tuberculosis, UniProt P9WGT3); experiment: Inhibition of the β-ketoacyl reductase activity of MabA after preincubation with antibiotic, NADPH and MnCl2; type: biochemical
protein MabA [3] = target: T2, protein MabA; experiment: MabA enzymatic kinetics test (NADPH oxidation at 340 nm)
InhA [4] = target: T1, InhA; conditions: cited from earlier work
enoyl-reductase = conditions: Kikuchi et al., 1989, cited from earlier work
β-ketoacyl reductase = conditions: Kikuchi et al., 1989, cited from earlier work
[5] = aqueous solutions; Constantinides & Steim, 1985; cited from earlier work
[6] = test system: CCCCCCCCCCC(=O)C(=O)SCCNC(=O)CCNC(=O)[C@H](O)C(C)(C)COP(=O)(O)OP(=O)(O)OC[C@H]1O[C@@H](n2cnc3c(N)ncnc32)[C@H](O)[C@@H]1OP(=O)(O)O; experiment: purified protein, by the assay type
[7] = test system: CCCCCCC(=O)C(=O)SCCNC(=O)CCNC(=O)[C@H](O)C(C)(C)COP(=O)(O)OP(=O)(O)OC[C@H]1O[C@@H](n2cnc3c(N)ncnc32)[C@H](O)[C@@H]1OP(=O)(O)O; experiment: purified protein, by the assay type
[8] = test system: CC(=O)CC(=O)SCCNC(=O)CCNC(=O)[C@H](O)C(C)(C)COP(=O)(O)OP(=O)(O)OC[C@H]1O[C@@H](n2cnc3c(N)ncnc32)[C@H](O)[C@@H]1OP(=O)(O)O; experiment: purified protein, by the assay type
[9] = other: section 4.1, 25° C., 80 mM sodium phosphate, NADPH Km at 460 μM acetoacetyl-CoA, β-ketoacyl-CoA Km at 100 μM NADPH

T2 sequence (P9WGT3 whole entry, looked up): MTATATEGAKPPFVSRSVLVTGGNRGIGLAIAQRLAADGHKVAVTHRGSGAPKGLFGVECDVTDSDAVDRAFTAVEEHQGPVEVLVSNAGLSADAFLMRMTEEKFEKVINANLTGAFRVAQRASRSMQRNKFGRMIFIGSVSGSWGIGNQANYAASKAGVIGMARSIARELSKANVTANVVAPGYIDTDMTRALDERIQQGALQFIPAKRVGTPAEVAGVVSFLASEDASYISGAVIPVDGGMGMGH
T1 sequence (P9WGR1 whole entry, looked up): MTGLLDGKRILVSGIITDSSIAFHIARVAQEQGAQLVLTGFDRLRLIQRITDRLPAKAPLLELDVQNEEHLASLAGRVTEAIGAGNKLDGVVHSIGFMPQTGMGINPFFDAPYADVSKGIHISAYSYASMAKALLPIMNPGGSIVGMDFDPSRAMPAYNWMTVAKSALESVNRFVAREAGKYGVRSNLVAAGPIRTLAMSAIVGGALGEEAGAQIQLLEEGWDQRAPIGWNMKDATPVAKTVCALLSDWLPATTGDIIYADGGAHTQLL

In the case of `CCc1cc(C(N)=S)ccn1` [ETH, ethionamide], the “effect on the activity of InhA” value (InhA [1]) is reported as “unchanged” and the “effect on the activity of MabA” value (protein MabA [2]; 100 μM ETH, conditions of inhibition by INH, same result as InhA (activity unchanged)) is reported as “same result”.
For `NC(=O)C1=CN([C@@H]2O[C@H](COP(=O)(O)OP(=O)(O)OC[C@H]3O[C@@H](n4cnc5c(N)ncnc54)[C@H](O)[C@@H]3O)[C@@H](O)[C@H]2O)C=CC1` [NADH], the “MabA activity on substitution of NADPH by NADH” value (protein MabA [3]; NADH at the same concentration as NADPH in the kinetics test) is given as “total loss of the activity” and the Km (InhA [4]; comparison value for InhA, read-out: Km of the protein InhA for its cofactor) is given as 8 µM.
For `C/C=C/C(=O)SCCNC(=O)CCNC(=O)[C@H](O)C(C)(C)COP(=O)(O)OP(=O)(O)OC[C@H]1O[C@@H](n2cnc3c(N)ncnc32)[C@H](O)[C@@H]1OP(=O)(O)O` [crotonoyl-CoA], the “activity of InhA in the presence of the 4-carbon substrate” value (InhA [4]; even at 8 mM, Quémard et al., 1995) is listed as “no activity”.
For `NNC(=O)c1ccncc1` [isoniazid, isonicotinic acid hydrazide], the Ki (enoyl-reductase) is given as 5500 µM, the inhibition of enoyl-reductase (enoyl-reductase; isoniazid 2 mM) is given as 26% and the “inhibition of the activity of MabA compared with the control without INH” value (protein MabA [2]; 100 μM INH, MabA 150 nM preincubated 2 hours with 100 μM NADPH and 1 μM MnCl2, acetoacetyl-CoA substrate) is given as 44±3%. For the same compound, the inhibition at 2000 µM (protein MabA [2]; 2 mM isoniazid, MabA 150 nM preincubated 2 hours with 100 μM NADPH and 1 μM MnCl2, acetoacetyl-CoA substrate) was 62 ± 6%, the “effect of INH on the activity of MabA in the absence of MnCl2” value (protein MabA [2]; absence of MnCl2 in the reaction) was “non-significant reduction” and the Ki (β-ketoacyl reductase) was 353 µM. The “inhibition of β-ketoacyl reductase” value (β-ketoacyl reductase; isoniazid 2 mM) was 93%.
For `CCCCCCCCCCCCCCCC(=O)SCCNC(=O)CCNC(=O)[C@H](O)C(C)(C)COP(=O)(O)OP(=O)(O)OC[C@H]1O[C@@H](n2cnc3c(N)ncnc32)[C@H](O)[C@@H]1OP(=O)(O)O` [palmitoyl-CoA], the “CMC (critical micellar concentration)” value [5] is given as 70 µM.
For `CCCCCCCCCCCCCCCCCC(=O)SCCNC(=O)CCNC(=O)[C@H](O)C(C)(C)COP(=O)(O)OP(=O)(O)OC[C@H]1O[C@@H](n2cnc3c(N)ncnc32)[C@H](O)[C@@H]1OP(=O)(O)O` [stearoyl-CoA], the “CMC (critical micellar concentration)” value [5] is listed as 12 µM.
Work on NADPH yielded a Km (protein MabA [3]; read-out: Km of MabA, section 4.1, 25° C., 80 mM sodium phosphate, NADPH Km at 460 μM acetoacetyl-CoA, β-ketoacyl-CoA Km at 100 μM NADPH) of 39 µM.
For “protein MabA (Mycobacterium tuberculosis H37Rv)”, the Km ([6]; 25.0 °C) was 8.3 ± 0.8 µM, the kcat ([6]; 25.0 °C) was 4.3 ± 0.2 s⁻¹ and the Km [6, 9] was 9 µM. It also gave a Km ([7]; 25.0 °C) of 70 ± 8 µM, a kcat ([7]; 25.0 °C) of 3.5 ± 0.0 s⁻¹ and a Km [7, 9] of 60 µM. The Km ([8]; 25.0 °C) was 1530 ± 81 µM, the kcat ([8]; 25.0 °C) was 1.9 ± 0.0 s⁻¹ and the Km [8, 9] was 1582 µM.

Source: patent publication US20100240084A1, “USE OF THE PROTIEN MABA (FABG1) OF MYCOBACTERIUM TUBERCULOSIS FOR DESIGNING AND SCREENING ANTIBIOTICS” (priority 2002, published 2010)
